From patent US7745465B2, “Method of enhancing cellular production of molecular chaperone, hydroxylamine derivatives useful for enhancing the chaperone production and the preparation thereof” (CytRx Corporation, priority 1995, dated 2010)

Columns and labels:
HSP72 [1] = assay: Heat stress induced HSP72 production in 3T3 cells; assay type: cell-based, mouse; conditions: 10^−5 M
How it was run: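 Mouse 3T3 fibroblasts in MEM monolayer were heat-stressed 30 min at 43° C, with test compounds at 10^−5 M given 15 min before or 100 min after stress. HSP72 detected by immunoblot with SPA 810 primary and HRP secondary antibodies, quantified by densitometry.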

Male Sprague-Dawley rats = assay: Protection against cardiac ischaemia: survival after 5 minutes coronary occlusion and reperfusion; assay type: in vivo, rat
[2] = tested on: Streptozotocin-induced diabetic (STZ) rats; assay: Wound healing of thermal wounds in STZ-diabetic rats; assay type: in vivo, rat; conditions: 4% containing cream, topical
Method: (ii) Streptozotocin-induced diabetic (STZ) rats with partial-to full thickness thermal wounds created on bilateral thoracic depilated skin by electroheating probe (3 mm of diameter; 60° C.; for 30, 60 and 90 sec.), treated by topical application of 1%, 2% or 4% N-[2-hydroxy-3-(1-piperidinyl)propoxy]-3-piridinecarboximidoyl chloride maleate containing cream or vehicle were used to determine the wound healing in form of self-control, side to side comparison. Wound closure was recorded photographically and using the digital epiluminescence microscopic technique. Wound areas were measured by planimetry 48 h and 21 days after heat injury. Level of hsp72 of skin biopsy samples was determined using Western blot analysis.

TNF treated WEHI 164 = assay: Protection of cells against cytotoxic cytokines (TNF); assay type: cell-based; conditions: WEHI 164 (and other mammalian) cells
hsp72 [3] = assay: Heat stress induced hsp72 level in U-937 leukemia cells; assay type: cell-based, human; conditions: U-937 cells, 10^−5 M, treatment preceded heat stress
Method: From the applied cells the 3T3 and L-929 mouse fibroblasts were cultured in MEM medium and grew in monolayer, the U-937 human leukemia cells were maintained in RPMI-1640 medium, in suspension culture, while the HeLa human epithelial cells were cultured in DMEM medium and in monolayer form. Cell cultures were maintained as described in example 6.2 (a) with the difference that cells were cultured in the above mentioned culture mediums.
Experiments were carried out applying stress before and after the drug treatment. Stress was provoked by heat, by chemical agent, HgCl2 treatment. The test compounds were applied in the treatments at the 10^−5 M concentration.
The experiments on 3T3 cell applying heat stress were performed as described in the 6.2. (c) point of example 6, with the difference that stress was induced by a 30 min. exposure at 43° C. temperature and treatment with the test compounds was performed 15 min. before or 100 min. after the heat stress.
Experiments using heat shock on U-937 leukemia and L-929 mouse fibroblast cells were carried out similarly as described above, but drug treatments in these tests always preceded the heat stress. The compound N-[2-hydroxy-3-(1-piperidinyl)-propoxy]-3-pyridine-carboximidoyl chloride maleate was tested at the 10^−5 M concentration under these experimental conditions.

O=C(O)/C=C\C(=O)O.OC(CON=C(Cl)c1cccnc1)CN1CCCCC1 (stereo not shown) [N-[2-hydroxy-3-(1-piperidinyl)-propoxy]3-pyridinecarboximidoyl chloride maleate]
HSP72 level relative to the stress exposed control (HSP72 [1]; treatment 15 min. before 30 min. 43° C. heat stress): +++ (>100%)
HSP72 level relative to the stress exposed control (HSP72 [1]; treatment 100 min. after 30 min. 43° C. heat stress): 0 (0 indicates that the treatment altered by ±20% the stress induced hsp72 level in the cells)
Survival (%) (Male Sprague-Dawley rats; 20 mg/kgbw p.o.): 100%
Survival (%) (Male Sprague-Dawley rats; i.v. 1 mg/kgbw, 5 min. before the occlusion, non-treated control 10): 100%
wound closure compared to vehicle control [2]: accelerated wound closure
survival rate of TNF treated cells (TNF treated WEHI 164): increased the survival rate
increase in the heat stress induced hsp72 level (hsp72 [3]): more than 50%
